Data taken from patent US10011813B2, “Methane oxidation methods and compositions” (California Institute of Technology, priority 2015, dated 2018).
≈ marks a conversion by molar mass, not a printed value. Where “and” joins values, the source holds several entries; their conditions need not be identical. Equal values may be shown once. Marks after values point to notes of the source that are not given here.

Experiments:
[1] = test system: methane seep sediment (ANME archaea); test: AOM rate measurement via 13C-methane (newly formed DIC) in methane seep sediment incubations; format: cell-based, ANME-2a and ANME-2c
From the text: General description of methane oxidation measurements via ^13C-methane. Methane oxidation was quantified by determining the production of inorganic carbon (“CO2”). Accurate quantification of the concentration of inorganic carbon formed from methane oxidation is challenging due to 4 main reasons:
A defined amount of added DIC in artificial, buffered seawater was used with a low calcium concentration to prevent carbonate precipitation (see medium composition). As ^13CH4 was the only ^13C-enriched carbon source added, the newly formed ^13C-DIC must be derived from methane. For low methane oxidation rates (less than ca. 5% relative to sulfate as the oxidant or electron acceptor), however, enzyme-catalyzed isotope exchange between methane and DIC, needs to be taken into account, because it contributes to ^13C enrichment of the DIC without net methane oxidation, resulting in an overestimation of net methane oxidation. […] Details of both methods, the ^13CH4 experiments and the standard addition are described herein.
Incubation conditions for AOM rate measurement. Each incubation vial was set up with 1.0 cm^3 wet sediment (wet sediment=volume of sediment after allowing the sediment slurry settle for 48 h) in total slurry volume of […] as follows: Sterile serum vials were closed with butyl rubber stoppers (volume=12.9 ml after closing) and flushed with methane. 1.0 mL ^13CH4 (99% ^13C, Cambridge Isotope Laboratories, containing 0.05 vol % ^13CO2 as an impurity) was introduced anaerobically. 2.0 mL of artificial, anaerobic seawater containing 2.5× the target concentration of the corresponding electron acceptor was injected into the serum vial cooled on ice. For AQDS and 1,5-AQDS, this was a suspension corresponding to 25 mM (see TABLE 3).
The 1 L pyrex bottle with the sediment in the sulfate-free medium (1 part wet sediment in 3 parts of slurry volume) was vigorously shaken each time and 3.0 mL of slurry immediately removed and injected into the individual serum bottles. Each stoppered serum vial was supplemented with unlabeled methane (0.250 MPa overpressure: pressure gauge SSI Technologies, Inc., Media Gauge™) shaken and stored inverted at 4° C. (final headspace: 0.35 MPa methane, with ca. 4% ^13CH4). The exact fractional abundance of ^13C in the methane was quantified via ^1H-NMR spectroscopy for individual incubations.
AOM rate measurements (quantification of newly formed DIC based on ^13CH4). For ^13C-DIC analysis, 0.25 mL of the medium above the settled sediment in the microcosm was sampled with a disposable needle and syringe at each time point (same intervals for all experiments) and centrifuged (16000 rcf, 5 min). The supernatant was transferred into 0.6 mL eppendorf tubes, flash frozen in N2 (l), and stored at −20° C. until measurement. 150 μL of the thawed supernatant was then added to He-flushed vials containing 100 μL H3PO4 (85%). The resulting CO2 was analyzed for the isotopic enrichment (^13F(tn)) on a GC-IR-MS GasBench II (Thermo Scientific). The amount of DIC newly formed (Δ[DIC](tn), see FIG. 6B) was calculated from the measured ^13F (fractional abundance of ^13C), neglecting isotope effects on AOM according to Equation (1): Δ[DIC](tn)=[DIC](t0)*(^13F(tn)−^13F(t0))/(^13F(CH4)−^13F(tn)) (EQ. 1)

[2] = Quantification of AQDS solubility in the incubation medium; format: physicochemical
Procedure: Quantification of AQDS solubility in the incubation medium. Different regioisomers of AQDS (1,5-AQDS, 2,6-AQDS and 2,7-AQDS) were separately added to the modified artificial seawater described above, to a targeted final concentration of 25 mM. The suspensions were ultra-sonicated at room temperature to dissolve as much of the AQDS as possible. The tubes were kept at 4° C. or at 22.5° C. overnight. The tubes were centrifuged at 4° C. or 22.5° C. (16000 rcf, 30 min). The supernatant (300 μL) was mixed with 300 μL acetate (10.0 mM) as the internal standard and 100 μL deuterated water (99.9% D, Cambridge Isotope Laboratories) was added. The concentration of AQDS was obtained from integration of the ^1H-NMR spectra by comparison relative to the acetate standard.

ANME-SRB consortia = test: FISH-nanoSIMS 15N incorporation (anabolic activity) of ANME-SRB consortia; format: cell-based, ANME-2c archaea and Desulfobacteraceae
Procedure: Incubations for FISH-nanoSIMS and RNA analysis. For AOM incubations with sulfate or AQDS that were used for nanoSIMS (FIG. 7 and FIG. 8A) and RNA analysis (FIG. 6), incubations experiments were set up following the AOM-rate measurements described above (initially containing 1.0 mM ammonium without ^15N label). Methane oxidation rates were tracked in these incubations via the ^13C label. After 11 days, ca. 3.5 mL of supernatant remained in the serum bottles to which 3.0 mL artificial seawater without ammonium containing either 25 mM AQDS, 28 mM sulfate, or no oxidant or electron acceptor was added. Next, 0.1 mL ^15NH4^+ (100 mM) was injected to yield about 2.0 mM ammonium with ca. 75% ^15N. Methane oxidation was monitored. After additional 8 days, the medium of the AQDS incubations was exchanged by 5.0 mL new medium containing 25 mM AQDS and 2.0 mM ^15NH4^+. Now the AQDS incubations contained ca. 95% ^15NH4^+ in the ammonium pool. The cultures were incubated for additional 10 days before harvest. Total incubation time with labeled ammonium: 18 days. Average labeling strength: ca. 75% for sulfate and no oxidant or electron acceptor control; ca. 86% for the AQDS incubations.
For the second independent set of experiments with iron citrate, humic acids and sulfate (FIG. 8B), the medium contained 1.0 mM ammonium with ca. 40% ^15N label throughout the incubation period. These experiments were carried out from identical incubations that were for the AOM rate measurements (highlighted in Table 4). In regards to Table 4, the percentage AOM rates are reported relative to sulfate-coupled AOM (1.50 μmol cm^−3 day^−1). Top: Summary of compounds described in FIG. 1B; Bottom: Oxidants or electron acceptors resulting in an AOM rate less than 0.10 μmol […] day^−1 (<7% rel. to sulfate as oxidant or electron acceptor).
Sampling for FISH-nanoSIMS and RNA. After an 18-day incubation in the presence of ^15NH4^+, each incubation was shaken to suspend the sediment and 1.0 mL sediment slurry was sampled using a disposable sterile needle and syringe (ca. 0.3 mL wet sediment). […]
Sample preparation for aggregate embedding, sectioning, FISH, and nanoSIMS. […] Sections of ca. 1 μm thickness were cut and stretched on a water droplet on a polylysine coated slide with teflon wells (Tekdon Inc) and analyzed by fluorescence in situ hybridization (FISH). […]
FISH conditions and probes. The FISH hybridization on thin sections of resin embedded microbial aggregates followed the recently optimized protocol described in S. E. McGlynn et al. The phylogenetic identity of microorganisms in the thin sections were determined using conventional FISH using oligonucleotide probes fluorescently labeled on both the 5′ and 3′ ends (dual labeled) as outlined herein. […]

[3] = test system: methane seep sediment (ANME archaea); test: Quantification of sulfide (methylene blue method) in AOM incubations; format: cell-based, ANME-2a and ANME-2c; details: Sulfate 28 mM, after 21-day incubation
Procedure: Quantification of sulfide. Supernatant was removed via syringe and centrifuged in 0.6 mL Eppendorf tubes (16000 rcf, 30 s). 20 μL of the clear supernatant was removed and added to 400 μL Zn(OAc)2 (500 mM) to preserve the sulfide. Analysis was carried out in triplicate via the methylene blue method described in J. D. Clin (Waters. Limnol. Oceanogr. 14:454 (1969)), using standards of 0.1, 0.25, 0.5, 1, 2, 5, 10 and 25 mM sulfide added to Zn(OAc)2 (500 mM) in the same ratios as for the samples. Quantification was carried out in a plate reader (TECAN Sunrise™) by monitoring the absorbance at 670 nm.

## Nc1ccc2nc3ccc(N)cc3[n+](-c3ccccc3)c2c1 [Phenosafranine]
[1]; 10 mM, 1.6 mM, no MoO4^2−
  Rate relative to AOM with sulfate: ≤1.5 ^† %

## [Na+].[Na+].[O]=[Mo](=[O])([O-])[O-] [molybdate, sodium molybdate]
[1]; 25 mM molybdate, AQDS 10 mM
  effect on methane oxidation in sulfate-free incubations containing AQDS: no inhibitory response
[1]; 25 mM molybdate, sulfate 28 mM
  effect on rates of sulfate-coupled AOM relative to controls: decreased by approximately fivefold

## O=C1c2ccc(S(=O)(=O)O)cc2C(=O)c2cc(S(=O)(=O)O)ccc21 [2,7-AQDS, 9,10-anthraquinone-2,7-disulfonate]
[2]; 4° C.
  Solubility in the incubation medium: >25 mM
[2]; 22.5° C.
  Solubility in the incubation medium: >25 mM
[1]; 10 mM, no MoO4^2−
  Rate relative to AOM with sulfate: 97%

## O=C1c2cccc(S(=O)(=O)O)c2C(=O)c2cccc(S(=O)(=O)O)c21 [1,5-AQDS, 9,10-anthraquinone-1,5-disulfonate]
[2]; 4° C.
  Solubility in the incubation medium: 2.5 mM (≈ 921 µg/mL)
[1]; 10 mM, no MoO4^2−
  Rate relative to AOM with sulfate: 38%

## O=S(=O)(O)O [Sulfate]
ANME-SRB consortia; 18 days with 15NH4+
  doubling time of ANME cells based on average 15N-incorporation: 2.9 months
[3]
  sulfide (sum of HS^− and H2S), final concentration: 5.9 mM and 6.5 mM and 7.0 mM and 6.1 mM
[1]; 28 mM, no MoO4^2−, 100% = 1.50 μmol cm^−3 day^−1
  Rate relative to AOM with sulfate: 100%
[1]; 28 mM, with 25 mM MoO4^2−
  Rate relative to AOM with sulfate: 20%
[1]; Sulfate 28 mM, after 21-day incubation
  DIC formed: 6.44 mM and 7.77 mM and 7.51 mM and 7.29 mM
[1]; reference rate (100%) of Table 4
  sulfate-coupled AOM rate: 1.50 μmol cm^−3 day^−1
[1]; sediment characterization
  AOM rate: 1.5 μmol methane (cm^3 wet sediment)^−1 d^−1

## O=c1ccc2[n+]([O-])c3ccc(O)cc3oc-2c1 [Resazurin]
[1]; 10 mM, no MoO4^2−
  Rate relative to AOM with sulfate: ≤1.5 ^† %

## O=C([O-])CN(CC(=O)[O-])CC(=O)[O-].[Fe+3] [Fe(III)-NTA]
[1]; 1 mM, no MoO4^2−
  Rate relative to AOM with sulfate: 2.5%
[1]; 10 mM, no MoO4^2−
  Rate relative to AOM with sulfate: ≤1.5 ^† %

## Cc1cc2nc3cc(C)c(N)cc3[n+](-c3ccccc3)c2cc1N.[Cl-] [Safranine T]
[1]; 10 mM, 1.6 mM, no MoO4^2−
  Rate relative to AOM with sulfate: ≤1.5 ^† %

## O=C1C(=C2Nc3c(cc(S(=O)(=O)O)cc3S(=O)(=O)O)C2=O)Nc2c1cc(S(=O)(=O)O)cc2S(=O)(=O)O [Indigo tetrasulfonate]
[1]; 10 mM, 1 mM, no MoO4^2−
  Rate relative to AOM with sulfate: ≤1.5 ^† %

## O=C([O-])CN(CCN(CC(=O)[O-])CC(=O)[O-])CC(=O)[O-].[Fe+3] [Fe(III)-EDTA]
[1]; 1.6 mM, no MoO4^2−
  Rate relative to AOM with sulfate: 8%
[1]; 10 mM, no MoO4^2−
  Rate relative to AOM with sulfate: ≤1.5 ^† %

## 1-Hydroxynaphthoquinone
[1]; 10 mM, 1 mM, no MoO4^2−
  Rate relative to AOM with sulfate: ≤1.5 ^† %

## O=C([O-])CC(O)(CC(=O)[O-])C(=O)[O-].[Fe+3] [Fe(III)-citrate]
ANME-SRB consortia; second set of experiments, ca. 40% 15N
  AOM consortia anabolically active (>10% archaeal activity relative to sulfate treatments, or >0.8 at % 15N): 14 out of 31
[1]; 2 mM, with 25 mM MoO4^2−
  Rate relative to AOM with sulfate: 7%
[1]; 5 mM, with 25 mM MoO4^2−
  Rate relative to AOM with sulfate: 37%
[1]; 10 mM, no MoO4^2−
  Rate relative to AOM with sulfate: 53%
[1]; 10 mM, with 25 mM MoO4^2−
  Rate relative to AOM with sulfate: 46%
[1]; 25 mM, with 25 mM MoO4^2−
  Rate relative to AOM with sulfate: 2.5%

## COS(=O)(=O)[O-].C[n+]1c2ccccc2nc2ccccc21 [Phenazine methosulfate]
[1]; 1 mM, no MoO4^2−
  Rate relative to AOM with sulfate: ≤1.5 ^† %

## CN(C)c1ccc2nc3ccc(=[N+](C)C)cc-3sc2c1 [Methylene blue]
[1]; 1 mM, no MoO4^2−
  Rate relative to AOM with sulfate: ≤1.5 ^† %
